Results as given in patent US12466816B2, “Fused cyclic compound capable of degrading protein and use thereof” (Medshine Discovery Inc., priority 2019, dated 2025).

Test system: MM.1S cells
Experiment: Sensitivity of MM.1S versus low-CRBN-expression MM.1S-p5000 cells to WX106 (CCK-8)
Type: cell-based
Conditions: 10 μM, 72 h, MM.1S-p5000 versus MM.1S
Description: WX106 (10 μM) was added to MM.1S cells and MM.1S-p5000 (Poma-resistant low-CRBN-expression cell line) cells, respectively, and cell proliferation was detected by CCK-8 after 72 h.

Cc1ccc(C(=O)Nc2ccc3occ(C4CCC(=O)NC4=O)c3c2)cc1Cl (stereo not shown) [WX106]
sensitivity of cells to WX106 with low CRBN expression: significantly less sensitive
